Here are results for one molecule from ChEMBL document CHEMBL5108052, “Histone Deacetylase and Enhancer of Zeste Homologue 2 Dual Inhibitors Presenting a Synergistic Effect for the Treatment of Hematological Malignancies” (J Med Chem, 2022).

Data set [1] concerns MV4-11. As to the kind of experiment: animal or person. The note with it: Mus musculus, MV4-11, 480 h, route ip, time 20 day, read-out: TGI. The data set is classed as functional, Homo sapiens.
Data set [2] addresses Histone deacetylase 4 (Homo sapiens, UniProt P56524). The experiment in a line: Inhibition of N-terminal GST-tagged/C-terminal His-tagged human HDAC4 (627 to 1084 residues) expressed in baculovirus expression system using trifluoroacetyl lysine as substrate incubated for 2 hrs by Multimode microplate reader analysis.
Data set [3] relates to MV4-11. As to the kind of experiment: Induction of apoptosis in human MV4-11 cells assessed as late apoptotic cells at 0.1 uM measured after 48 hrs by Annexin V/7-AAD-dual staining based flow cytometric analysis (reference value: 1.1 %). The data set is classed as functional. For orientation: Flow cytometry measures light scatter and fluorescence of single cells or particles in a stream.

In data set [4] the test system is MV4-11. As to the kind of experiment: Induction of apoptosis in human MV4-11 cells assessed as necrotic cells at 0.4 uM measured after 48 hrs by Annexin V/7-AAD-dual staining based flow cytometric analysis (reference value: 0.3 %). It is filed as functional.
Data set [5] concerns L02. As to the kind of experiment: Cytotoxicity against human L02 cells assessed as increase in combination index measured after 72 hrs by CCK-8 assay. The following applies: l02, 72 h. The data set is classed as toxicity, cell-based. A general note: Tetrazolium assays rely on reduction of a dye to a coloured formazan, in cell work by metabolically active cells.
Data set [6] concerns MV4-11. As to the kind of experiment: Induction of mitochondrial membrane potential in human MV4-11 cells assessed as reduction in red fluorescence intensity at 0.2 uM measured after 48 hrs by JC1 staining-based flow cytometry analysis (reference value: 98.8%). The data set is classed as functional. Also on record: scale not given: the % may be the effect or the level left.

The species entered for data set [7] is Homo sapiens. The following applies: time 90.0 sec.
Data set [8] in a line: Binding affinity to recombinant PRC2 complex (unknown origin) incubated for 90 seconds by surface plasmon resonance assay. Also on record: species or system Homo sapiens. For orientation: Surface plasmon resonance follows binding to a sensor surface in real time, without labels.
In data set [9] the target is T1, Protein deacetylase HDAC6 (Homo sapiens, UniProt Q9UBN7).
T1 sequence (Q9UBN7 whole entry): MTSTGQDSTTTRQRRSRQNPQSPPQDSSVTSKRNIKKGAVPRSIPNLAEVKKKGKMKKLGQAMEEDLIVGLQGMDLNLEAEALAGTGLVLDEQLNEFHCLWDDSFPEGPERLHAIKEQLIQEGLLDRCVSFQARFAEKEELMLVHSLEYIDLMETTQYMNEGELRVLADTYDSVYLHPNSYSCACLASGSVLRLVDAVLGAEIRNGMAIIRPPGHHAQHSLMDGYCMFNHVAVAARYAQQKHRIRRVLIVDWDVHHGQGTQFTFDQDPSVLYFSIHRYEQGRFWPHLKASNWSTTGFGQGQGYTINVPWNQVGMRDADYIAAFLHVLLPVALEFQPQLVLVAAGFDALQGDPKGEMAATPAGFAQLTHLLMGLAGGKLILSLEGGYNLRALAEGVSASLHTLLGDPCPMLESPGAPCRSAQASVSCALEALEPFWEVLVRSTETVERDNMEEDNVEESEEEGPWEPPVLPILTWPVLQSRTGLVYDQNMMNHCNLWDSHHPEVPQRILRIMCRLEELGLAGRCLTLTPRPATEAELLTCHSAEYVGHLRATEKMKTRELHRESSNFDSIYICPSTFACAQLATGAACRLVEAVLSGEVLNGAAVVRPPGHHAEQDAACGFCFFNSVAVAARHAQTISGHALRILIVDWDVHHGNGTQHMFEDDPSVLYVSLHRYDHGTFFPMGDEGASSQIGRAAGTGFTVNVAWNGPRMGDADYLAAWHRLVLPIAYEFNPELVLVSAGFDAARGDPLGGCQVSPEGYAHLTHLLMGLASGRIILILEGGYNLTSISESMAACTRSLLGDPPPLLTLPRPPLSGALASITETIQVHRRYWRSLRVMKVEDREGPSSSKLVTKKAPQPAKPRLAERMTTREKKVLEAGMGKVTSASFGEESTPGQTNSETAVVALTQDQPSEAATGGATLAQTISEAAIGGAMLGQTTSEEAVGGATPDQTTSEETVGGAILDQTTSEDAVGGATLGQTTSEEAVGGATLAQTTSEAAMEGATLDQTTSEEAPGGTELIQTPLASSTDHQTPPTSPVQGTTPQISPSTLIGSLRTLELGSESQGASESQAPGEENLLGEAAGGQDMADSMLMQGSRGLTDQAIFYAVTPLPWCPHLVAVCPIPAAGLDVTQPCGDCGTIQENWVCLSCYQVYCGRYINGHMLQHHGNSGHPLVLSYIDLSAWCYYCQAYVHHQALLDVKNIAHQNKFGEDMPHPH
The experiment in a line: Inhibition of full length recombinant N-terminal GST-tagged human HDAC6 (1 to 1215 residues) expressed in baculovirus infected insect cells incubated for 2 hrs by Multimode microplate reader analysis.

In data set [10] the test system is MV4-11. As to the kind of experiment: Induction of apoptosis in human MV4-11 cells assessed as necrotic cells at 0.1 uM measured after 48 hrs by Annexin V/7-AAD-dual staining based flow cytometric analysis (reference value: 0.3 %). The data set is classed as functional.
Data set [11] deals with T1, Protein deacetylase HDAC6. As to the kind of experiment: Inhibition of HDAC6 (unknown origin) preincubated for 5 mins followed by substrate addition and measured after 30 mins by multimode microplate reader analysis.
Data set [12] deals with MV4-11. As to the kind of experiment: Induction of apoptosis in human MV4-11 cells assessed as early apoptotic cells at 0.2 uM measured after 48 hrs by Annexin V/7-AAD-dual staining based flow cytometric analysis (reference value: 2.2 %). It is filed as functional.
Data set [13] concerns MV4-11. As to the kind of experiment: Induction of apoptosis in human MV4-11 cells assessed as viable cells at 0.2 uM measured after 48 hrs by Annexin V/7-AAD-dual staining based flow cytometric analysis (reference value: 96.4 %). The data set is classed as functional. The note with it: read-out: Activity.
Data set [14] concerns MV4-11. The experiment in a line: Induction of apoptosis in human MV4-11 cells assessed as late apoptotic cells at 0.4 uM measured after 48 hrs by Annexin V/7-AAD-dual staining based flow cytometric analysis (reference value: 1.1 %). It is filed as functional.
Data set [15] has as its system MV4-11. The experiment in a line: Antitumor activity against human MV4-11 cells xenografted in BALB/c nude mouse assessed as tumor growth inhibition at 50 mg/kg, ip administered for 20 days in presence of by vernier caliper analysis. The data set is classed as functional. The note with it: MV4-11, 480 h, time 20 day, read-out: TGI.
For data set [16], the target named is Histone deacetylase 9 (Homo sapiens, UniProt Q9UKV0). The experiment in a line: Inhibition of HDAC9 (unknown origin) incubated for 2 hrs by Multimode microplate reader analysis.
The subject of data set [17] is MV4-11. As to the kind of experiment: Induction of apoptosis in human MV4-11 cells assessed as late apoptotic cells at 0.2 uM measured after 48 hrs by Annexin V/7-AAD-dual staining based flow cytometric analysis (reference value: 1.1 %). It is filed as functional.
In data set [18] the target is T2, Histone deacetylase 11 (Homo sapiens, UniProt Q96DB2).
T2 sequence (Q96DB2 whole entry): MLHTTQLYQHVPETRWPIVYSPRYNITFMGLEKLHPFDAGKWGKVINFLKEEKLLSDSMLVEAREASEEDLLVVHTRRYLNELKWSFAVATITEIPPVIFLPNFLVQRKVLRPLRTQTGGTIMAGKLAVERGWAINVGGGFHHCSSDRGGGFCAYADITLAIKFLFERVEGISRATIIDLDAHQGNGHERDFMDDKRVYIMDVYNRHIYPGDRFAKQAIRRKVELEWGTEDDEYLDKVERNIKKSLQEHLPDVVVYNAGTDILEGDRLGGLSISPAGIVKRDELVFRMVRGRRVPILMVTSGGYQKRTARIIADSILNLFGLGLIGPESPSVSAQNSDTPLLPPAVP
The experiment in a line: Inhibition of N-terminal Strep2-tagged recombinant His-tagged human HDAC11 (1 to 347 residues) using trifluoroacetyl lysine as substrate incubated for 2 hrs by Multimode microplate reader analysis.

Chain of Histone deacetylase 4 (P56524 whole entry, the tested form may be a part): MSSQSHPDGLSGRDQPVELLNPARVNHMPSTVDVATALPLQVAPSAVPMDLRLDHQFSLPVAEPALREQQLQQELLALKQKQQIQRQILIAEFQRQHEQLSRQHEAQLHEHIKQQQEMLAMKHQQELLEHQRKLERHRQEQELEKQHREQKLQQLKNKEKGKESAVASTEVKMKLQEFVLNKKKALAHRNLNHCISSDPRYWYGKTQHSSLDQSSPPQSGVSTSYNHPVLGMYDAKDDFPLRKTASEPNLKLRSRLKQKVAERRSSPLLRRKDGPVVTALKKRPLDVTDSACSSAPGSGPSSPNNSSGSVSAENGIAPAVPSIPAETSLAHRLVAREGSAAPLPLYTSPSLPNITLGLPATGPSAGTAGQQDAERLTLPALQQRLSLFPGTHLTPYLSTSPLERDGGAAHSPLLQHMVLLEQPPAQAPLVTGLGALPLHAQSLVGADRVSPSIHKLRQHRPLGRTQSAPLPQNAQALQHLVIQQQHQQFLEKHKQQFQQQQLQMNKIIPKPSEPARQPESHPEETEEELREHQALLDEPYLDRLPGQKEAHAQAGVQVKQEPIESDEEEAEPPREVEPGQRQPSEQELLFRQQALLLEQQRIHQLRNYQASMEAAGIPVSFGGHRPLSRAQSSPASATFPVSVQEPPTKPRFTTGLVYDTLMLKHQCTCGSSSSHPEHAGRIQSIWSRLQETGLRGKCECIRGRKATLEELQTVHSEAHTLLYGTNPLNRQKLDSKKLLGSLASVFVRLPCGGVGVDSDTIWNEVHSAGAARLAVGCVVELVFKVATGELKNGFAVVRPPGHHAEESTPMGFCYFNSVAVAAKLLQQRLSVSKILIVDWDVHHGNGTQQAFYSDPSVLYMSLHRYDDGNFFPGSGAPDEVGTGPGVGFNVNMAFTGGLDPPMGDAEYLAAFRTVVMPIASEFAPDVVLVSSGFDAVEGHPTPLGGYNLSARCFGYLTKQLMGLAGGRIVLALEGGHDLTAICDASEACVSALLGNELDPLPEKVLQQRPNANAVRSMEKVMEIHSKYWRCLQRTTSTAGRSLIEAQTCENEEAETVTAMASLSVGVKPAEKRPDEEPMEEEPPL
Chain of Histone deacetylase 9 (Q9UKV0 whole entry): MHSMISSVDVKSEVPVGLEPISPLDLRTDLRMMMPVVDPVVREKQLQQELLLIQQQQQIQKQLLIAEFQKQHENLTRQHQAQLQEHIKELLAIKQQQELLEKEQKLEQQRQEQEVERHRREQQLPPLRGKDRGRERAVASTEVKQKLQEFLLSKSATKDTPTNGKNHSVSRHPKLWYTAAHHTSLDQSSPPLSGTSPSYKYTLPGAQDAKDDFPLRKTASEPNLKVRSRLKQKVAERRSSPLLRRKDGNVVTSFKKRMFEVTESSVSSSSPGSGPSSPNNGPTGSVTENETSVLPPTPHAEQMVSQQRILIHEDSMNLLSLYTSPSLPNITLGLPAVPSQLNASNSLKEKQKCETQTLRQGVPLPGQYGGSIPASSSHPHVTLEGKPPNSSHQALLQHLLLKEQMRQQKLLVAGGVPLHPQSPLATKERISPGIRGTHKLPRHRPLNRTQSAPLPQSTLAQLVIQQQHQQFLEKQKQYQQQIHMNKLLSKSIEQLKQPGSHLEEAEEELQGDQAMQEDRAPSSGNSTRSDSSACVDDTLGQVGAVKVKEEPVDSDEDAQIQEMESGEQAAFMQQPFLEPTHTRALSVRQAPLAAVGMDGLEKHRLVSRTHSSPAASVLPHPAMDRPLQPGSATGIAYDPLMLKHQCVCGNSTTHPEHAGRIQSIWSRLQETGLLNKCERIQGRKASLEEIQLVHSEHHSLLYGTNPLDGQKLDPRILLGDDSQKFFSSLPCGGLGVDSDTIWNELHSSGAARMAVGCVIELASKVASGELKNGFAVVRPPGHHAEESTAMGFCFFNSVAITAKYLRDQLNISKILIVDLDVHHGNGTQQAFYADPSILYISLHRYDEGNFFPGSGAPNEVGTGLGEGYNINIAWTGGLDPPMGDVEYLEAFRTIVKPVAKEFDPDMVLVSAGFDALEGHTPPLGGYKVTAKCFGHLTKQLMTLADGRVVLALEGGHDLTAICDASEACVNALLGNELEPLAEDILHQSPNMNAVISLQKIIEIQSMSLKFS

Turning to `Cc1cc(C)c(CNC(=O)c2cc(-c3ccc(N4CCN(c5ncc(C(=O)NO)cn5)CC4)nc3)cc3c2cnn3C(C)C)c(=O)[nH]1`, the inhibition in vivo at 100 mg/kg in data set [1] worked out at 82%. Moreover, the IC50 (in general, the concentration at which inhibition is half-maximal) came to 5640 nM in data set [2]; 700 nM in data set [9]; 700 nM in data set [11]; 7050 nM in data set [16]; 2560 nM in data set [18]. Moreover, the Activity is listed as 4.4% in data set [3]; 0.1% in data set [4]; “Toxic” in [5]; 84.3% in [6]; 1.9% in data set [10]; 10.3% in data set [12]. In addition, the Activity in [14] amounted to 17.1%; in data set [17], 11.1%. Besides, the Ka in data set [7] was 2.18 10^5/M/s. The equilibrium dissociation constant (Kd) (commonly the constant that tells how readily two partners part at equilibrium) in data set [8] amounted to 39 nM. For the same molecule, the viability at 0.2 µM in data set [13] was found to be 74%. Besides, the inhibition in vivo at 50 mg/kg in data set [15] turned out to be 65.7%.
